Assay type in all cases: cell-based
The target in one test is T1, hPPARalpha (Homo sapiens, UniProt Q07869).
T1 construct: Gal4-hPPARα(LBD); Gal4 (fusion partner); expressed in transfected cells; host or cells: COS-7 (monkey kidney)
T1 sequence (Q07869 239-466 limits assumed): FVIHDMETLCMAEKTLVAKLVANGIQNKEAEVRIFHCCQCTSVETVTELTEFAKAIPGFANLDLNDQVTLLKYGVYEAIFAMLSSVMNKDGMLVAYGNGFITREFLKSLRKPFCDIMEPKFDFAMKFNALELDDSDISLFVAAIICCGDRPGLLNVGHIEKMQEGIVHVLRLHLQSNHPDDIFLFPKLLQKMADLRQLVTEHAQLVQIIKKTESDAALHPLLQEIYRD
Description: Gal4-hPPARalpha transactivation assay in COS-7 cells (luciferase). The note with it: for Emax: COS-7, maximal relative activation vs reference, read-out: Gal4-hPPARα(LBD) TOP (% ref); for EC50: Gal4-hPPARα(LBD) transactivation; for Gal4-hPPARα(LBD) TOP (% ref): maximal relative activation vs reference. As to the method:
(§1) Monkey kidney COS-7 cells were maintained in standard culture conditions (Dulbecco's modified Eagle's minimal medium: DMEM) supplemented with 10% fetal calf serum, 1% sodium pyruvate, 1% essential amino acids and 1% antibiotics at 37° C. in a humidified atmosphere of 5% C02 and 95% air. The medium was changed every 2 days. All tested compounds were dissolved in DMSO. Cells were transfected using 2 μl JetPEI™ (Polyplus transfection)/μg of DNA. Briefly, 40 μg of DNA was transfected in a 225 cm^2 culture flask of adherent COS-7 cells (respecting the 1/50 ratio between the Gal4(RE)_TkpGL3 plasmid and the plasmid coding the nuclear receptor of interest (pGal4-hPPARalpha, pGal4-hPPARgamma, pGal4-hPPARdelta, pGal4-mPPARalpha, pGal4-mPPARgamma and pGal4-mPPARdelta) or of the pGal4phi plasmid (negative control). Cells were enzymatically detached and seeded in 384 well plates at the density of 20,000 cells/well and then incubated for 4 hours at 37° C. The activation was automatically performed, by using the Genesis Freedom 200™ (Tecan), in fresh medium supplemented with 2% of synthetic serum, free of lipids (Ultroser™, Biosepra) supplemented with the tested compounds (compound of interest or reference molecules) or vehicle (DMSO 0.1%). The luciferase activity was measured with the Steady-Glo Luciferase Assay System (Promega, Madison, Wis.). All transactivation experiments were performed at least 2 times. Activation curves were realized using SigmaPlot® (version 7.0 from SPSS Inc.) software and took into account all the experimental points. SimgaPlot® was also used to fit the standard curves and then determine the specific EC50 values, maximum effect versus reference molecules and Hill slope. The Emax effect of each new ligand is represented as the ratio of the maximal induction (plateau) obtained with the new ligand and the induction obtained with the corresponding reference compound. The reference compounds for PPARalpha, PPARgamma and PPARdelta were fenofibrate (100 μM), rosiglitazone (10 μM) and GW501516 (1 μM).

For a further test, the target named is T2, hPPARgamma (Homo sapiens, UniProt P37231).
T2 construct: Gal4-hPPARγ(LBD); Gal4 (fusion partner); expressed in transfected cells; host or cells: COS-7 (monkey kidney)
T2 sequence (P37231 238-503 limits assumed): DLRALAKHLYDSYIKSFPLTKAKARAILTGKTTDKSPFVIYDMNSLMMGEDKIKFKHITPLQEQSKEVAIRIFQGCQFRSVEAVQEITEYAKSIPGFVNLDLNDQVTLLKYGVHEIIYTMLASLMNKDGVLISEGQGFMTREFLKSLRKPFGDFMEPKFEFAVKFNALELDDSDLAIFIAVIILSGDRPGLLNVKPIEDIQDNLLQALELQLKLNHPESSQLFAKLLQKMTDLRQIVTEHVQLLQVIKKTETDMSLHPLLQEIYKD
Kind of test: Gal4-hPPARgamma transactivation assay in COS-7 cells (luciferase). The note with it: for Emax: COS-7, maximal relative activation vs reference, read-out: Gal4-hPPARγ(LBD) TOP (% ref); for EC50: Gal4-hPPARγ(LBD) transactivation; for Gal4-hPPARγ(LBD) TOP (% ref): maximal relative activation vs reference. On the procedure: as §1

The next test concerns the target T3, hPPARdelta (Homo sapiens, UniProt Q03181).
T3 construct: Gal4-hPPARδ(LBD); Gal4 (fusion partner); expressed in transfected cells; host or cells: COS-7 (monkey kidney)
T3 sequence (Q03181 211-439 limits assumed): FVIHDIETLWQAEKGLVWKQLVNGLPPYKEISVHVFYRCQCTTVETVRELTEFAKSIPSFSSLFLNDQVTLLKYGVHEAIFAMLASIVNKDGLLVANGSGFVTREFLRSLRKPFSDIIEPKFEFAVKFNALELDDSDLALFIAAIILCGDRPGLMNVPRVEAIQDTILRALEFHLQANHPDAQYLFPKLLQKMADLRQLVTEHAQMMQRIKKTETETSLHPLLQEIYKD
Kind of test: Gal4-hPPARdelta transactivation assay in COS-7 cells (luciferase). The note with it: for Emax: COS-7, maximal relative activation vs reference, read-out: Gal4-hPPARδ(LBD) TOP (% ref); for EC50: Gal4-hPPARδ(LBD) transactivation; for Gal4-hPPARδ(LBD) TOP (% ref): maximal relative activation vs reference. On the procedure: as §1

The term EC50 denotes the concentration giving half of the maximal effect. Read a low EC50 as higher potency in that assay. In the case of `COc1cc(OC(F)(F)F)ccc1C(OC)C1CC1c1cc(C)c(OC(C)(C)C(=O)O)c(C)c1` (racemic) [Cpd 17-1, 2-(4-(2-(methoxy(2-methoxy-4-(trifluoromethoxy)phenyl)methyl)cyclopropyl)-2,6-dimethylphenoxy)-2-methylpropanoic acid], the results for the Emax at hPPARalpha, at hPPARgamma and on hPPARdelta were 49%, 75% and 86%, respectively. Also, the EC50 at hPPARalpha came to 38 nM; on hPPARgamma, 12 nM; on hPPARdelta, 6 nM.

In the case of `COC(c1ccc(SC(F)(F)F)cc1)C1CC1c1cc(C)c(OC(C)(C)C(=O)O)c(C)c1` (racemic) [Cpd 9-1, 2-(4-(2-(methoxy(4-(trifluoromethylthio)phenyl)methyl)cyclopropyl)-2,6-dimethylphenoxy)-2-methylpropanoic acid], the Emax at hPPARalpha was 50%; at hPPARgamma, 77%; on hPPARdelta it was 89%. Further, the concentration for a half-maximal effect (EC50) at hPPARalpha came out at 10 nM; on hPPARgamma, 11 nM; at hPPARdelta, 14 nM.

As for `CCCCCCOc1ccccc1C(OC)C1CC1c1cc(C)c(OC(C)(C)C(=O)O)c(C)c1` (racemic) [Cpd 18-1, 2-(4-(2-((2-(hexyloxy)phenyl)(methoxy)methyl)cyclopropyl)-2,6-dimethylphenoxy)-2-methylpropanoic acid], the results for the Emax on hPPARalpha, on hPPARgamma and at hPPARdelta were 44%, 84% and 78%, respectively. Besides, the EC50 on hPPARalpha came out at 59 nM; on hPPARgamma, 26 nM; on hPPARdelta, 157 nM.

On to `COC(c1ccccc1OC(F)(F)F)C1CC1c1cc(C)c(OC(C)(C)C(=O)O)c(C)c1` (single isomer, unassigned) [Cpd 13-1, 2-(4-(2-(methoxy(2-(trifluoromethyloxy)phenyl)methyl)cyclopropyl)-2,6-dimethylphenoxy)-2-methylpropanoic acid], for which the Emax on hPPARalpha came to 26%; at hPPARgamma it was 72%; at hPPARdelta, 59%. The values for the EC50 on hPPARalpha, on hPPARgamma and on hPPARdelta were 652 nM, 72 nM and 328 nM, respectively.

In the case of `COC(c1ccc(C(F)(F)F)cc1C(F)(F)F)C1CC1c1cc(C)c(OC(C)(C)C(=O)O)c(C)c1` (racemic) [Cpd 16-2, 2-(4-(2-((2,4-bis(trifluoromethyl)phenyl)(methoxy)methyl)cyclopropyl)-2,6-dimethylphenoxy)-2-methylpropanoic acid], on hPPARalpha, the “Gal4-hPPARα(LBD) TOP (% ref)” value came out at 50 % ref. Besides, the “Gal4-hPPARγ(LBD) TOP (% ref)” value at hPPARgamma is recorded as 88 % ref. In addition, the “Gal4-hPPARδ(LBD) TOP (% ref)” value on hPPARdelta is on record as 71 % ref.

With `Cc1cc(C2CC2C(OCCC2CCCCC2)c2ccc(OC(F)(F)F)cc2)cc(C)c1OC(C)(C)C(=O)O` (racemic) [Cpd 6-2, 2-(4-(2-(cyclohexylethyloxy(4-(trifluoromethoxy)phenyl)methyl)cyclopropyl)-2,6-dimethylphenoxy)-2-methylpropanoic acid], on hPPARalpha, it took 26 nM to reach a half-maximal effect (EC50) and the “Gal4-hPPARα(LBD) TOP (% ref)” value is on record as 38 % ref. Moreover, at hPPARgamma, a half-maximal effect (EC50) was put at 34 nM and the “Gal4-hPPARγ(LBD) TOP (% ref)” value came to 79 % ref. In addition, at hPPARdelta, the EC50 worked out at 131 nM and the “Gal4-hPPARδ(LBD) TOP (% ref)” value is on record as 66 % ref.

`COC(c1ccc(OC(F)(F)F)cc1)C1CC1c1cc(C)c(OC(C)(C)C(=O)O)c(C)c1` (stereo not shown) [Cpd 14-2-2, 2-(4-(2-(methoxy(4-(trifluoromethoxy)phenyl)methyl)cyclopropyl)-2,6-dimethylphenoxy)-2-methylpropanoic acid]: the EC50 at hPPARalpha (listed as cpd 14-2-2) came out at 17 nM; at hPPARdelta (listed as cpd 14-2-2), 59 nM. Further, the “Gal4-hPPARγ(LBD) TOP (% ref)” value on hPPARgamma (listed as cpd 14-2-2) came out at 72 % ref. For the same compound, the “Gal4-hPPARδ(LBD) TOP (% ref)” value on hPPARdelta (listed as cpd 14-2-2) is on record as 57 % ref.

With `COC(c1ccc(OC(F)(F)F)cc1)C1CC1c1ccc(OC(C)(C)C(=O)O)c(Br)c1` (racemic) [Cpd 19-1, 2-(2-bromo-4-(2-(methoxy(4-(trifluoromethoxy)phenyl)methyl)cyclopropyl)phenoxy)-2-methylpropanoic acid], the figures for the Emax at hPPARalpha, at hPPARgamma and on hPPARdelta were 53%, 64% and 100%, respectively. For the same compound, the EC50 came out at 157 nM on hPPARalpha, 97 nM on hPPARgamma and 26 nM at hPPARdelta.

Regarding `CCCCOC(c1ccc(OC(F)(F)F)cc1)C1CC1c1cc(C)c(OC(C)(C)C(=O)O)c(C)c1` (single isomer, unassigned) [Cpd 5-1, 2-(4-(2-(butyloxy(4-(trifluoromethoxy)phenyl)methyl)cyclopropyl)-2,6-dimethylphenoxy)-2-methylpropanoic acid], the Emax at hPPARalpha came out at 44%; on hPPARgamma, 84%; at hPPARdelta it was 62%. For the same compound, the EC50 is 47 nM on hPPARalpha, 143 nM at hPPARgamma and 34 nM at hPPARdelta.

For the compound `Cc1cc(C2CC2C(OCc2ccccc2)c2ccc(OC(F)(F)F)cc2)cc(C)c1OC(C)(C)C(=O)O` (single isomer, unassigned) [Cpd 11-1, 2-(4-(2-(benzyloxy(4-(trifluoromethoxy)phenyl)methyl)cyclopropyl)-2,6-dimethylphenoxy)-2-methylpropanoic acid], the Emax worked out at 46% on hPPARalpha, 86% at hPPARgamma and 75% at hPPARdelta. For the same compound, the 50% effective concentration (EC50) on hPPARalpha amounted to 21 nM; at hPPARgamma, 116 nM; at hPPARdelta, 79 nM.

Regarding `COC(c1ccc(C(F)(F)F)cc1F)C1CC1c1cc(C)c(OC(C)(C)C(=O)O)c(C)c1` (single isomer, unassigned) [Cpd 12-2, 2-(4-(2-(methoxy(2-fluoro-4-(trifluoromethyl)phenyl)methyl)cyclopropyl)-2,6-dimethylphenoxy)-2-methylpropanoic acid], the EC50 came to 90 nM on hPPARalpha, 3 nM on hPPARgamma and 13 nM on hPPARdelta.

As for `COC(c1ccc(OC(F)(F)F)cc1)C1CC1c1ccc(OC(C)(C)C(=O)O)c(C(C)C)c1` (single isomer, unassigned) [Cpd 15-1, 2-(2-isopropyl-4-(2-(methoxy(4-(trifluoromethoxy)phenyl)methyl)cyclopropyl)phenoxy)-2-methylpropanoic acid], the Emax at hPPARalpha was 24%; at hPPARgamma it was 66%; at hPPARdelta it was 92%. Also, the values for the EC50 on hPPARalpha, on hPPARgamma and at hPPARdelta were 449 nM, 66 nM and 105 nM, respectively.

`COC(c1ccc(C(F)(F)F)cc1)C1CC1c1cc(C)c(OC(C)(C)C(=O)O)c(C)c1` (racemic) [Cpd 4-1, 2-(4-(2-(methoxy(4-(trifluoromethyl)phenyl)methyl)cyclopropyl)-2,6-dimethylphenoxy)-2-methylpropanoic acid]: the Emax on hPPARalpha was 47%; at hPPARgamma it was 84%; on hPPARdelta, 92%. Further, the EC50 at hPPARalpha came to 64 nM; on hPPARgamma it was 20 nM; on hPPARdelta it was 16 nM.
